Data taken from patent US7612064B2, “Sulfopyrroles” (Takeda Pharmaceutical Company Limited, priority 2003, dated 2009).

Legend:
[1] = Hoechst 33342 nuclear staining; format: cell-based; conditions: 24 h or 48 h incubation; for Hoechst 33342 nuclear staining score, HeLa: HeLa cells; for Hoechst 33342 nuclear staining score, Jurkat: Jurkat cells;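 as to all read-outs here: apoptotic nuclei scored 0 none 1 weak under 50% of cells 2 strong over 50% of cells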
Method: This assay is performed in 96 well tissue culture plates. Appropriate number of cells (adherent cells: 3-5*10^3, suspension cells: 8-10*10^3) are being seeded out in 80 μl complete medium. Adherent cells are incubated for 24 h for proper spreading out before addition of test compounds while suspension cells are immediately treated with test compounds after seeding out. The test compounds are added in 20 μl complete medium containing max 5% DMSO. […] […] The assay plates are then further incubated for 30 min and subsequently analyzed with a standard inverted fluorescence microscope.
The readout allows the determination of the fraction of apoptotic nuclei as well as other morphological criteria specific for apoptosis as a function of the treatment. The following scores are used: 0 relating to no activity, 1 relating to weak activity comprising less than 50% of the cells and score 2 relating to strong activity comprising more than 50% of the cells.

Jurkat = assay: MTS proliferation assay; format: cell-based, human; conditions: 72 h
Method: (§1) The assay is performed in 96 well tissue culture plates. […] The test compounds are added in 20 μl complete medium containing max 5% DMSO. The final compound concentrations in the assays are 10 μM, 3 μM, 1 μM and 0.3 μM, respectively. The assay plates are incubated for 72 h at culture conditions. The MTS reagent is prepared according to the manufacturer's protocol (Promega G1111). 20 μl MTS reagent are added to each well, the assay plates are quickly spun and incubated for another 3 h at culture conditions. Subsequently, the plates are shortly shacked and absorption measured with a microplate-reader at 492 nm.

HeLa = assay: MTS proliferation assay; format: cell-based, human; conditions: 72 h
Method: as §1

MRC5 = assay: MTS proliferation assay; format: cell-based; conditions: MRC5, 72 h
Method: as §1

[2] = conc 0.1 (final concentrations in μM)
[3] = conc 0.3 (final concentrations in μM)
[4] = conc 1 (final concentrations in μM)
[5] = conc 3 (final concentrations in μM)
[6] = conc 10 (final concentrations in μM)

SMILES	Hoechst 33342 nuclear staining score, HeLa [1, 2]	Hoechst 33342 nuclear staining score, HeLa [1, 3]	Hoechst 33342 nuclear staining score, HeLa [1, 4]	Hoechst 33342 nuclear staining score, HeLa [1, 5]	Hoechst 33342 nuclear staining score, Jurkat [1, 2]	Hoechst 33342 nuclear staining score, Jurkat [1, 3]	Hoechst 33342 nuclear staining score, Jurkat [1, 4]	Hoechst 33342 nuclear staining score, Jurkat [1, 5]	IC50 (Jurkat) [nM]	IC50 (HeLa) [nM]	IC50 (MRC5) [nM]	Hoechst 33342 nuclear staining score, HeLa [1, 6]	Hoechst 33342 nuclear staining score, Jurkat [1, 6]
Cc1ccc(S(=O)(=O)n2cc(CN3CCN(c4ncccn4)CC3)cc2-c2ccc3c(c2)OCO3)cc1 [Example 28]	0	0	0	0	0	0	0	0	> 1000	> 1000	> 1000		
CCN1CCN(CCCNCc2cc(-c3ccc4c(c3)OCO4)n(S(=O)(=O)c3ccc(C)cc3)c2)CC1 [Example 29]	0	0	0	0	0	0	0	0	> 1000	> 1000	> 1000		
Cc1ccc(S(=O)(=O)n2cc(CN(C)CCN(C)C)cc2-c2ccc3c(c2)OCO3)cc1 [Example 31]	0	0	0	0	0	0	0	0	> 1000	> 1000	> 1000		
Cc1ccc(S(=O)(=O)n2cc(CN3CCN(c4ccccn4)CC3)cc2-c2ccc3c(c2)OCO3)cc1 [Example 32]	0	0	0	0	0	0	0	0	> 1000	> 1000	> 1000		
CCN(CC)CCCNCc1cc(-c2ccc3c(c2)OCO3)n(S(=O)(=O)c2ccc(C)cc2)c1 [Example 34]	0	0	0	0	0	0	0	0	> 1000	> 1000	> 1000		
CCN1CCN(c2ccc(NCc3cc(-c4ccc5c(c4)OCO5)n(S(=O)(=O)c4ccc(C)cc4)c3)cc2)CC1 [Example 37]		0	0	0		0	0	0	> 1000	> 1000	> 1000	0	0
Cc1ccc(S(=O)(=O)n2cc(CNc3ccc(N4CCOCC4)c(Cl)c3)cc2-c2ccc3c(c2)OCO3)cc1 [Example 38]		0	0	0		0	0	0	> 1000	> 1000	> 1000	0	0
Cc1ccc(S(=O)(=O)n2cc(CNc3ccc(N4CCOCC4)cc3N3CCOCC3)cc2-c2ccc3c(c2)OCO3)cc1 [Example 39]		0	0	0		0	0	0	> 1000	> 1000	> 1000	0	0
Cc1ccc(S(=O)(=O)n2cc(CNc3ccc(-n4ccnc4)cc3)cc2-c2ccc3c(c2)OCO3)cc1 [Example 40]		0	0	0		0	0	0	> 1000	> 1000	> 1000	0	0
Cc1ccc(S(=O)(=O)n2cc(-c3cncnc3)cc2-c2ccc3c(c2)OCO3)cc1 [Example 46]		0	0	0		0	0	0	> 1000	> 1000	> 1000	0	0
Cc1ccc(S(=O)(=O)n2cc(-c3ccc(C#N)cc3)cc2-c2ccc3c(c2)OCO3)cc1 [Example 48]	0	0	0	0	0	0	0	0	> 1000	> 1000	> 1000		
Cc1ccc(S(=O)(=O)n2cc(-c3cccnc3)cc2-c2ccc3c(c2)OCO3)cc1 [Example 49]	0	0	0	0	0	0	0	0	> 1000	> 1000	> 1000		
Cc1ccc(S(=O)(=O)n2cc(-c3cncc(C(N)=O)c3)cc2-c2ccc3c(c2)OCO3)cc1 [Example 50]	0	0	0	2 (strong activity comprising more than 50% of the cells)	0	0	0	2 (strong activity comprising more than 50% of the cells)	< 1000	> 1000	> 1000		
Cc1ccc(S(=O)(=O)n2cc(-c3ccc(C(N)=O)cc3)cc2-c2cccs2)cc1 [Example 52]	0	0	0	0	0	0	0	0	> 1000	> 1000	> 1000		
